Source: the supplement of paper PMC10307832

How the values were obtained:
Assay in all cases: relative viability (nuclei count vs DMSO), 5 days (fraction); higher = more cells survive
PC-14 = system: PC-14
Method in brief: (§1)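 Lung cancer cell lines in 1536-well plates got either a single drug or a fixed anchor-drug dose together with five library-drug doses (not always all listed) in √10 steps, by pin tool, on the day after seeding. Nuclei were counted after 5 days, and relative viability is the treated-to-vehicle ratio of nuclei counts. Values are medians of duplicate plates.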

H3255 = system: H3255
Method in brief: as §1

NCI-H520 = system: NCI-H520
Method in brief: as §1

NCI-H2405 = system: NCI-H2405
Method in brief: as §1

NCI-H23 = system: NCI-H23
Method in brief: as §1

NCI-H647 = system: NCI-H647
Method in brief: as §1

NCI-H1666 = system: NCI-H1666
Method in brief: as §1

NCI-H1915 = system: NCI-H1915
Method in brief: as §1

NCI-H2347 = system: NCI-H2347
Method in brief: as §1

NCI-H2126 = system: NCI-H2126
Method in brief: as §1

EPLC-272H = system: EPLC-272H
Method in brief: as §1

LC-2-ad = system: LC-2-ad
Method in brief: as §1

RERF-LC-KJ = system: RERF-LC-KJ
Method in brief: as §1

NCI-H661 = system: NCI-H661
Method in brief: as §1

NCI-H650 = system: NCI-H650
Method in brief: as §1

HCC-78 = system: HCC-78
Method in brief: as §1

201T = system: 201T
Method in brief: as §1

HCC-827 = system: HCC-827
Method in brief: as §1

COR-L 105 = system: COR-L 105
Method in brief: as §1

NCI-H2087 = system: NCI-H2087
Method in brief: as §1

ChaGo-K-1 = system: ChaGo-K-1
Method in brief: as §1

LCLC-97TM1 = system: LCLC-97TM1
Method in brief: as §1

For `O=c1cc(N2CCOCC2)oc2c(-c3cccc4c3sc3ccccc34)cccc12` + Nc1nc2[nH]cc(CCc3ccc(C(=O)N[C@@H](CCC(=O)O)C(=O)O)cc3)c2c(=O)[nH]1 [Pemetrexed] (partner 0.2 µM), the relative viability (PC-14; first compound 0.01 µM) was 0.133, the relative viability (PC-14; first compound 0.03162 µM) was 0.153 and the relative viability (PC-14; first compound 0.1 µM) was 0.131. It also gave a relative viability (PC-14; first compound 0.3162 µM) of 0.114, a relative viability (PC-14; first compound 1 µM) of 0.132 and a relative viability (H3255; first compound 0.01 µM) of 0.552. It also gave a relative viability (H3255; first compound 0.03162 µM) of 0.617, a relative viability (H3255; first compound 0.1 µM) of 0.531 and a relative viability (H3255; first compound 0.3162 µM) of 0.585. For the same compound, the relative viability (H3255; first compound 1 µM) was 0.553, the relative viability (NCI-H520; first compound 0.01 µM) was 0.646 and the relative viability (NCI-H520; first compound 0.03162 µM) was 0.657. For the same compound, the relative viability (NCI-H520; first compound 0.1 µM) was 0.772, the relative viability (NCI-H520; first compound 0.3162 µM) was 0.623 and the relative viability (NCI-H520; first compound 1 µM) was 0.659. It also gave a relative viability (NCI-H2405; first compound 0.01 µM) of 1.02, a relative viability (NCI-H2405; first compound 0.03162 µM) of 1.18 and a relative viability (NCI-H2405; first compound 0.1 µM) of 0.943. For the same compound, the relative viability (NCI-H2405; first compound 0.3162 µM) was 1.11, the relative viability (NCI-H2405; first compound 1 µM) was 1.09 and the relative viability (NCI-H23; first compound 0.01 µM) was 0.732. It also gave a relative viability (NCI-H23; first compound 0.03162 µM) of 0.761, a relative viability (NCI-H23; first compound 0.3162 µM) of 0.659 and a relative viability (NCI-H23; first compound 1 µM) of 0.609. For the same compound, the relative viability (NCI-H647; first compound 0.01 µM) was 0.187, the relative viability (NCI-H647; first compound 0.03162 µM) was 0.183 and the relative viability (NCI-H647; first compound 0.1 µM) was 0.184. The relative viability (NCI-H647; first compound 0.3162 µM) was 0.209, the relative viability (NCI-H647; first compound 1 µM) was 0.178 and the relative viability (NCI-H1666; first compound 0.01 µM) was 0.944. It also gave a relative viability (NCI-H1666; first compound 0.03162 µM) of 0.912, a relative viability (NCI-H1666; first compound 0.1 µM) of 0.896 and a relative viability (NCI-H1666; first compound 0.3162 µM) of 0.779. It also gave a relative viability (NCI-H1666; first compound 1 µM) of 0.82, a relative viability (NCI-H1915; first compound 0.01 µM) of 0.495 and a relative viability (NCI-H1915; first compound 0.03162 µM) of 0.534. For the same compound, the relative viability (NCI-H1915; first compound 0.1 µM) was 0.486, the relative viability (NCI-H1915; first compound 0.3162 µM) was 0.441 and the relative viability (NCI-H1915; first compound 1 µM) was 0.486. It also gave a relative viability (NCI-H2347; first compound 0.01 µM) of 0.458, a relative viability (NCI-H2347; first compound 0.03162 µM) of 0.472 and a relative viability (NCI-H2347; first compound 0.1 µM) of 0.415. The relative viability (NCI-H2347; first compound 0.3162 µM) was 0.433, the relative viability (NCI-H2347; first compound 1 µM) was 0.44 and the relative viability (NCI-H2126; first compound 0.01 µM) was 0.713. For the same compound, the relative viability (NCI-H2126; first compound 0.03162 µM) was 0.72, the relative viability (NCI-H2126; first compound 0.1 µM) was 0.636 and the relative viability (NCI-H2126; first compound 0.3162 µM) was 0.668. It also gave a relative viability (NCI-H2126; first compound 1 µM) of 0.674, a relative viability (EPLC-272H; first compound 0.01 µM) of 0.344 and a relative viability (EPLC-272H; first compound 0.03162 µM) of 0.361. The relative viability (EPLC-272H; first compound 0.1 µM) was 0.334, the relative viability (EPLC-272H; first compound 0.3162 µM) was 0.368 and the relative viability (EPLC-272H; first compound 1 µM) was 0.442. It also gave a relative viability (LC-2-ad; first compound 0.01 µM) of 0.267, a relative viability (LC-2-ad; first compound 0.03162 µM) of 0.284 and a relative viability (LC-2-ad; first compound 0.1 µM) of 0.282. It also gave a relative viability (LC-2-ad; first compound 0.3162 µM) of 0.279, a relative viability (LC-2-ad; first compound 1 µM) of 0.304 and a relative viability (RERF-LC-KJ; first compound 0.01 µM) of 0.474. For the same compound, the relative viability (RERF-LC-KJ; first compound 0.03162 µM) was 0.478, the relative viability (RERF-LC-KJ; first compound 0.1 µM) was 0.492 and the relative viability (RERF-LC-KJ; first compound 0.3162 µM) was 0.489. The relative viability (RERF-LC-KJ; first compound 1 µM) was 0.423, the relative viability (NCI-H661; first compound 0.01 µM) was 0.867 and the relative viability (NCI-H661; first compound 0.03162 µM) was 0.898. The relative viability (NCI-H661; first compound 0.1 µM) was 0.95, the relative viability (NCI-H661; first compound 0.3162 µM) was 0.925 and the relative viability (NCI-H661; first compound 1 µM) was 0.892. It also gave a relative viability (NCI-H650; first compound 0.01 µM) of 0.764, a relative viability (NCI-H650; first compound 0.03162 µM) of 1.08 and a relative viability (NCI-H650; first compound 0.3162 µM) of 0.85. It also gave a relative viability (NCI-H650; first compound 1 µM) of 0.786, a relative viability (HCC-78; first compound 0.01 µM) of 0.897 and a relative viability (HCC-78; first compound 0.03162 µM) of 0.886. For the same compound, the relative viability (HCC-78; first compound 0.1 µM) was 0.933, the relative viability (HCC-78; first compound 0.3162 µM) was 0.877 and the relative viability (HCC-78; first compound 1 µM) was 0.979. For the same compound, the relative viability (201T; first compound 0.01 µM) was 0.326, the relative viability (201T; first compound 0.03162 µM) was 0.316 and the relative viability (201T; first compound 0.1 µM) was 0.338. It also gave a relative viability (201T; first compound 0.3162 µM) of 0.397, a relative viability (201T; first compound 1 µM) of 0.359 and a relative viability (HCC-827; first compound 0.01 µM) of 0.264. For the same compound, the relative viability (HCC-827; first compound 0.03162 µM) was 0.254, the relative viability (HCC-827; first compound 0.1 µM) was 0.295 and the relative viability (HCC-827; first compound 0.3162 µM) was 0.271. For the same compound, the relative viability (HCC-827; first compound 1 µM) was 0.3, the relative viability (COR-L 105; first compound 0.01 µM) was 1.09 and the relative viability (COR-L 105; first compound 0.03162 µM) was 0.949. It also gave a relative viability (COR-L 105; first compound 0.1 µM) of 1.1, a relative viability (COR-L 105; first compound 0.3162 µM) of 0.997 and a relative viability (COR-L 105; first compound 1 µM) of 0.854. For the same compound, the relative viability (NCI-H2087; first compound 0.01 µM) was 0.665, the relative viability (NCI-H2087; first compound 0.03162 µM) was 0.633 and the relative viability (NCI-H2087; first compound 0.1 µM) was 0.693. The relative viability (NCI-H2087; first compound 0.3162 µM) was 0.662, the relative viability (NCI-H2087; first compound 1 µM) was 0.651 and the relative viability (ChaGo-K-1; first compound 0.01 µM) was 0.267. The relative viability (ChaGo-K-1; first compound 0.03162 µM) was 0.249, the relative viability (ChaGo-K-1; first compound 0.1 µM) was 0.247 and the relative viability (ChaGo-K-1; first compound 0.3162 µM) was 0.259. For the same compound, the relative viability (ChaGo-K-1; first compound 1 µM) was 0.286, the relative viability (LCLC-97TM1; first compound 0.01 µM) was 0.189 and the relative viability (LCLC-97TM1; first compound 0.03162 µM) was 0.162. It also gave a relative viability (LCLC-97TM1; first compound 0.1 µM) of 0.202, a relative viability (LCLC-97TM1; first compound 0.3162 µM) of 0.162 and a relative viability (LCLC-97TM1; first compound 1 µM) of 0.177.
